Source: patent publication US20250223268A1, “4-Methylsulfonylbenzamide Compound, Preparation Method, Herbicidal Composition And Use” (Jiangsu Flag Chemical Industry Co., Ltd., priority 2022, published 2025)

Legend:
Test in all cases: Greenhouse herbicidal activity assay, post-emergence
Assay type in all cases: in vivo
Digitaria sanguinalis = settings: Post-emergence test, rate 150 g a.i./hm^2, grade by fresh weight inhibition rate; for pest or weed control at 150 g/ha: Digitaria sanguinalis, read-out: Control efficacy grade, Digitaria sanguinalis
Outline: (§1)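 Weeds were sown in nutrient soil in 7 cm pots and grown in a growth chamber to the 3-6 leaf stage, then foliar-sprayed, air-dried and returned to the chamber. Fresh weight inhibition was scored 14-21 days later in bands from A (≥80% to 100%) to E (<20%).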

Echinochloa crusgalli = settings: Post-emergence test, rate 150 g a.i./hm^2, grade by fresh weight inhibition rate
Outline: as §1

Eclipta prostrata = settings: Post-emergence test, rate 150 g a.i./hm^2, grade by fresh weight inhibition rate; for pest or weed control at 150 g/ha: Eclipta prostrata, read-out: Control efficacy grade, Eclipta prostrata
Outline: as §1

Leptochloa chinensis = settings: Post-emergence test, rate 150 g a.i./hm^2, grade by fresh weight inhibition rate; for pest or weed control at 150 g/ha: Dinebra chinensis, read-out: Control efficacy grade, Leptochloa chinensis
Outline: as §1

Cyperus iria = settings: Post-emergence test, rate 150 g a.i./hm^2, grade by fresh weight inhibition rate; for pest or weed control at 150 g/ha: Cyperus iria, read-out: Control efficacy grade, Cyperus iria
Outline: as §1

| SMILES | Control efficacy grade, Digitaria sanguinalis (Digitaria sanguinalis) | Control efficacy grade, Echinochloa crusgalli (Echinochloa crusgalli) | Control efficacy grade, Eclipta prostrata (Eclipta prostrata) | Control efficacy grade, Leptochloa chinensis (Leptochloa chinensis) | Control efficacy grade, Cyperus iria (Cyperus iria) | pest or weed control at 150 g/ha (Cyperus iria) | pest or weed control at 150 g/ha (Digitaria sanguinalis) | pest or weed control at 150 g/ha (Echinochloa crusgalli; Echinochloa crus-galli, read-out: Control efficacy grade, Echinochloa crusgalli) | pest or weed control at 150 g/ha (Eclipta prostrata) | pest or weed control at 150 g/ha (Leptochloa chinensis) |
| --- | --- | --- | --- | --- | --- | --- | --- | --- | --- | --- |
| CCC(C)[S+]([O-])c1c(S(C)(=O)=O)ccc(C(=O)Nc2nnnn2C)c1Cl (mixture of isomers) [Compound 1-19] | A (Fresh weight inhibition rate≥80% to 100%) | A (Fresh weight inhibition rate≥80% to 100%) | A (Fresh weight inhibition rate≥80% to 100%) | A (Fresh weight inhibition rate≥80% to 100%) |  |  |  |  |  |  |
| CCC(C)[S+]([O-])c1c(S(C)(=O)=O)ccc(C(=O)Nc2ncnn2C)c1Cl (mixture of isomers) [Compound 2-19] | A (Fresh weight inhibition rate≥80% to 100%) | A (Fresh weight inhibition rate≥80% to 100%) | A (Fresh weight inhibition rate≥80% to 100%) | A (Fresh weight inhibition rate≥80% to 100%) | A (Fresh weight inhibition rate≥80% to 100%) |  |  |  |  |  |
| CCC(C)[S+]([O-])c1c(S(C)(=O)=O)ccc(C(=O)Nc2nnc(C)o2)c1Cl (mixture of isomers) [Compound 3-19] | A (Fresh weight inhibition rate≥80% to 100%) | A (Fresh weight inhibition rate≥80% to 100%) | A (Fresh weight inhibition rate≥80% to 100%) | A (Fresh weight inhibition rate≥80% to 100%) | A (Fresh weight inhibition rate≥80% to 100%) |  |  |  |  |  |
| CCC(C)[S+]([O-])c1c(S(C)(=O)=O)ccc(C(=O)Nc2nnco2)c1Cl (mixture of isomers) [Compound 3-285] | A (Fresh weight inhibition rate≥80% to 100%) | A (Fresh weight inhibition rate≥80% to 100%) | A (Fresh weight inhibition rate≥80% to 100%) | A (Fresh weight inhibition rate≥80% to 100%) | A (Fresh weight inhibition rate≥80% to 100%) |  |  |  |  |  |
| CCc1nnc(NC(=O)c2ccc(S(C)(=O)=O)c([S+]([O-])C(C)CC)c2Cl)o1 (mixture of isomers) [Compound 3-401] | A (Fresh weight inhibition rate≥80% to 100%) | A (Fresh weight inhibition rate≥80% to 100%) | A (Fresh weight inhibition rate≥80% to 100%) | A (Fresh weight inhibition rate≥80% to 100%) | A (Fresh weight inhibition rate≥80% to 100%) |  |  |  |  |  |
| CCC(C)[S+]([O-])c1c(S(C)(=O)=O)ccc(C(=O)Nc2nnc(C3CC3)o2)c1Cl (mixture of isomers) [Compound 3-633] | A (Fresh weight inhibition rate≥80% to 100%) | A (Fresh weight inhibition rate≥80% to 100%) | A (Fresh weight inhibition rate≥80% to 100%) | A (Fresh weight inhibition rate≥80% to 100%) | A (Fresh weight inhibition rate≥80% to 100%) |  |  |  |  |  |
| CCC[S+]([O-])c1c(S(C)(=O)=O)ccc(C(=O)Nc2nnnn2C)c1Cl (racemic) [Compound 1-2, 2-chloro-N-(1-methyl-1H-tetrazol-5-yl)-4-(methylsulfonyl)-3-(propylsulfinyl)benzamide] |  |  |  |  |  | 80 to 100% | 80 to 100% | 80 to 100% | 80 to 100% | 80 to 100% |
| Cc1nnc(NC(=O)c2ccc(S(C)(=O)=O)c([S+]([O-])CCCl)c2Cl)o1 (racemic) [Compound 3-213] | A (Fresh weight inhibition rate≥80% to 100%) | A (Fresh weight inhibition rate≥80% to 100%) |  | A (Fresh weight inhibition rate≥80% to 100%) | A (Fresh weight inhibition rate≥80% to 100%) |  |  |  |  |  |
| CS(=O)(=O)c1ccc(C(=O)Nc2nnc(C3CC3)o2)c(Cl)c1[S+]([O-])C1CCCC1 (racemic) [Compound 3-662] | A (Fresh weight inhibition rate≥80% to 100%) |  | A (Fresh weight inhibition rate≥80% to 100%) | A (Fresh weight inhibition rate≥80% to 100%) | A (Fresh weight inhibition rate≥80% to 100%) |  |  |  |  |  |
| Cc1nonc1NC(=O)c1ccc(S(C)(=O)=O)c([S+]([O-])C(C)C)c1Cl (racemic) [Compound 4-7] | B (Fresh weight inhibition rate≥260% to <80%) | A (Fresh weight inhibition rate≥80% to 100%) | A (Fresh weight inhibition rate≥80% to 100%) | A (Fresh weight inhibition rate≥80% to 100%) |  |  |  |  |  |  |
| CCC(C)S(=O)(=O)c1c(S(C)(=O)=O)ccc(C(=O)Nc2nonc2C)c1Cl (racemic) [Compound 4-24] | A (Fresh weight inhibition rate≥80% to 100%) |  | A (Fresh weight inhibition rate≥80% to 100%) | A (Fresh weight inhibition rate≥80% to 100%) | A (Fresh weight inhibition rate≥80% to 100%) |  |  |  |  |  |
| Cn1ncnc1NC(=O)c1ccc(S(C)(=O)=O)c(SC2CC2)c1Cl [Compound 2-32] | A (Fresh weight inhibition rate≥80% to 100%) | A (Fresh weight inhibition rate≥80% to 100%) | A (Fresh weight inhibition rate≥80% to 100%) | A (Fresh weight inhibition rate≥80% to 100%) |  |  |  |  |  |  |
| Cc1nnc(NC(=O)c2ccc(S(C)(=O)=O)c(SC(C)(C)C)c2Cl)o1 [Compound 3-32] | B (Fresh weight inhibition rate≥260% to <80%) | A (Fresh weight inhibition rate≥80% to 100%) |  | A (Fresh weight inhibition rate≥80% to 100%) | A (Fresh weight inhibition rate≥80% to 100%) |  |  |  |  |  |
| C=C(C)CS(=O)(=O)c1c(S(C)(=O)=O)ccc(C(=O)Nc2nnc(C)o2)c1Cl [Compound 3-146] | B (Fresh weight inhibition rate≥260% to <80%) |  | A (Fresh weight inhibition rate≥80% to 100%) | A (Fresh weight inhibition rate≥80% to 100%) | A (Fresh weight inhibition rate≥80% to 100%) |  |  |  |  |  |
| Cc1nnc(NC(=O)c2ccc(S(C)(=O)=O)c(SCC(F)(F)C(F)(F)F)c2Cl)o1 [Compound 3-172] | A (Fresh weight inhibition rate≥80% to 100%) |  | A (Fresh weight inhibition rate≥80% to 100%) | A (Fresh weight inhibition rate≥80% to 100%) | A (Fresh weight inhibition rate≥80% to 100%) |  |  |  |  |  |
| Cc1nnc(NC(=O)c2ccc(S(C)(=O)=O)c(SC(C)C#N)c2Cl)o1 (centres unmarked) [Compound 3-202] | B (Fresh weight inhibition rate≥260% to <80%) | A (Fresh weight inhibition rate≥80% to 100%) |  | A (Fresh weight inhibition rate≥80% to 100%) | B (Fresh weight inhibition rate≥260% to <80%) |  |  |  |  |  |
| CCc1nnc(NC(=O)c2ccc(S(C)(=O)=O)c(SCC(F)F)c2Cl)o1 [Compound 3-444] | B (Fresh weight inhibition rate≥260% to <80%) | A (Fresh weight inhibition rate≥80% to 100%) |  | A (Fresh weight inhibition rate≥80% to 100%) |  |  |  |  |  |  |
| C=CCSc1c(S(C)(=O)=O)ccc(C(=O)Nc2nnc(CC)o2)c1Cl [Compound 3-454] | A (Fresh weight inhibition rate≥80% to 100%) | A (Fresh weight inhibition rate≥80% to 100%) |  | A (Fresh weight inhibition rate≥80% to 100%) | A (Fresh weight inhibition rate≥80% to 100%) |  |  |  |  |  |
| CCCSc1c(S(C)(=O)=O)ccc(C(=O)Nc2nnc(C3CC3)o2)c1Cl [Compound 3-615] | A (Fresh weight inhibition rate≥80% to 100%) |  | A (Fresh weight inhibition rate≥80% to 100%) | A (Fresh weight inhibition rate≥80% to 100%) | A (Fresh weight inhibition rate≥80% to 100%) |  |  |  |  |  |
| CCCSc1c(S(C)(=O)=O)ccc(C(=O)Nc2nonc2C)c1Cl [Compound 4-1, 2-chloro-N-(4-methyl-1,2,5-oxadiazol-3-yl)-4-(methylsulfonyl)-3-(propylthio)benzamide] |  |  |  |  |  | 80 to 100% | 80 to 100% |  | 80 to 100% | 80 to 100% |
| Cc1nonc1NC(=O)c1ccc(S(C)(=O)=O)c(S(=O)(=O)C(C)C)c1Cl [Compound 4-10] | B (Fresh weight inhibition rate≥260% to <80%) | A (Fresh weight inhibition rate≥80% to 100%) |  | A (Fresh weight inhibition rate≥80% to 100%) | A (Fresh weight inhibition rate≥80% to 100%) |  |  |  |  |  |
